From patent publication US20170314056A1, “METHOD OF USING NEAR INFRARED FLUORESCENT DYES FOR IMAGING AND TARGETING CANCERS” (priority 2010, published 2017)
“Also recorded” adds a separate entry of the source.

How the values were obtained:
[1] = test system: mouse pancreatic cancer cell lines (PDAC2.3, PDAC3.3, BTC3 and BTC4); assay: Uptake of NIR dyes by mouse pancreatic cancer cell lines; assay type: cell-based; details: PDAC2.3, PDAC3.3, BTC3, BTC4; 20 μM dye
P69 cells = assay: Live-cell kinetics of dye uptake in normal prostate epithelial cells; assay type: cell-based, human
Procedure: Cells were plated on live-cell imaging chambers (World Precision Instrument, Sarasota, Fla.) overnight. Cells were exposed to cyanine dyes at different concentrations and dye uptake was evaluated by a Perkin-Elmer Ultraview ERS spinning disc confocal microscope. This system was mounted on a Zeiss Axiovert 200m inverted microscope equipped with a 37° C. stage warmer, incubator, and constant CO2 perfusion. A 63× or 100× Zeiss oil objective (numerical aperture, 1.4) was used for live cell images and a Z-stack was created using the attached piezoelectric z-stepper motor. The 633 nm laser line of an argon ion laser (set at 60% power) was used to excite the cyanine dyes. […] For comparative studies, the exposure time and laser intensity were kept identical for accurate intensity measurements. Pixel intensity was quantified using Metamorph 6.1 (Universal Imaging, Downingtown, Pa.) and the mean pixel intensity was generated as grey level using the Region Statistics feature on the software (23). To determine the dye uptake by the mitochondria, the mitochondrial tracking dye Mito Tracker Orange CMTMROS (Molecular Probes, Carlsbad, Calif.) was used. To determine the dye localization in lysosomes, a lysosome tracking dye, Lyso Tracker Green DND-26 (Molecular Probes, Carlsbad, Calif.), was selected. Imaging of mitochondrial and/or lysosome localization of the cyanine dye was conducted under confocal microscopy (24).
To determine if the cyanine dye uptake and accumulation in cancer cells was dependent upon OATPs, cells were preincubated with 250 μM bromosulfophthalein (BSP), a competitive inhibitor of organic anion transporting peptides (OATPs) (25), for 5 minutes prior to incubating the cells with cyanine dyes. The uptake and accumulation of cyanine dyes in the presence and absence of BSP were conducted in the stage warmer incubator for a period of 35 minutes. The levels of cyanine dye taken up and accumulated in normal prostate (P69) and prostate cancer (ARCaPM) cells were determined and compared on a real-time basis.

renal cancer cells = assay: Subcellular co-localization in renal cancer cells; assay type: cell-based, human; details: Mito tracker and Lyso tracker overlay
Procedure: To determine the dye uptake by the mitochondria, the mitochondrial tracking dye, Mito Tracker Orange CMTMROS (Molecular Probes, Carlsbad, Calif.), was used. To determine the dye localization in lysosomes, a lysosome tracking dye, Lyso Tracker Green DND-26 (Molecular Probes, Carlsbad, Calif.), was selected. Images of mitochondrial and/or lysosome localization of the cyanine dye were merged and evidence of co-localization of the cyanine dye and tracking dyes were assessed by confocal imaging using a previously established protocol.^69

[2] = test system: TRAMP mouse prostate tumors; assay: Detection of spontaneous prostate tumors in TRAMP transgenic mice; assay type: in vivo
Procedure: The uptake of cyanine dyes by the TRAMP mouse prostate model and the Apc^Min/+ mouse-adenoma model (obtained from The Jackson Laboratory, Bar Harbor, Me.) was assessed by a similar protocol as described above. We also utilized the Olympus OV100 imaging system to detect adenoma in the Apc^Min/+ mouse model. In brief, mice were injected intraperitoneally with IR-783 dye at a dose of 10 nmol/20 g body weight and animals were subjected to total body cyanine dye imaging as described above. Animals were sacrificed at 48 hrs after dye administration and tumors were dissected and subjected to NIR imaging. The presence of tumor cells in tissue specimens was confirmed by histopathologic analysis.

ARCaPM tumor = assay: Dye biodistribution in ARCaPM tumor-bearing mice; assay type: in vivo, mouse
Source text: To assess tissue distribution of these dyes, athymic mice without tumor implantation were sacrificed at 0, 6 and 80 hrs (N=3 each) after i.v. injection of IR-783 dye at a dose of 10 nmol/20 g. Dissected organs were subjected to NIR imaging by a Kodak Imaging Station 4000 MM. In another study the mice bearing orthotopic ARCaPM tumors were subjected to NIR imaging at 0.5, 24, 48, 72 and 96 hrs after IR-783 i.v. administration at a dose of 10 nmol/20 g. In some cases, we also assessed the biodistribution of NIR dye by a spectral method in tissues harvested from athymic mice bearing subcutaneous ARCaPM tumors (N=6). Tumors and normal host organs were homogenized in PBS, centrifuged at 15,000×g for 15 minutes to recover the supernatant fraction after the mice were injected i.p. with IR-783 at a dose of 10 nmol/20 g. The presence of the organic dyes (parental IR-783 and its metabolites) in tissues was estimated spectrophotometrically at an emission wavelength of 820 nm by a PTI Near Infrared Fluorometer QuantaMaster™ 50 (PTI, Birmingham, N.J.) equipped with a 75-watt xenon arc lamp under 500 to 1700 nm InGaAs detector using known concentrations of IR-783 as the standard (28). In other cases, tumor tissues harvested from mice were stored in formalin from 1 week to 3 months, and fluorescence images were obtained and compared.

[3] = test system: human renal cancer cells (SN12C); assay: Detection of renal cancer cells in blood by NIR imaging and flow cytometry; assay type: cell-based; details: SN12C cells spiked into whole blood; 20 μM IR-783
Procedure: Citrated whole mouse blood samples were collected from same inbred athymic nude mice. A known number of human renal cancer cells (SN12C) were added into 3 ml whole mouse blood, and mixed gently with 20 μM IR-783 and incubated for 30 minutes at 37° C. The mononuclear cells and cancer cells were recovered by gradient centrifugation using Histopaque-1077 (Sigma, St. Louis, Mo.) and then diluted with 0.5 ml of 1% paraformaldehyde to inhibit further activation. A sample incubated with PBS served as negative isotype control. The isolated live cells were observed under a Leica TCS SP confocal microscope (Leica Microsystems, Heidelberg, Germany) and samples were excited with 670 nm. All samples were analyzed within 1 hrs of collection in a Becton Dickinson LSRII flow cytometer (Becton Dickinson Biosciences, San Jose, Calif.) with a red laser diode (640 nm) for excitation and cy7 detector for detection and with LYSIS II software.

[4] = Physicochemical properties of the dye
[5] = aqueous media; cited from earlier work

With “2-[2-[2-Chloro-3-[2-[1,3-dihydro-3,3-dimethyl-1-(4-sulfobutyl)-2H-indol-2-ylidene]-ethylidene]-1-cyclohexen-1-yl]-ethenyl]-3,3-dimethyl-1-(4-sulfobutyl)-3H-indolium [IR-783]” the “uptake of dye by mouse pancreatic cancer cell lines” value [1] was “taken up by other malignant cells from both human and mouse; also recorded: significant uptake”, the “uptake of dye in P69 cells” value (P69 cells; confocal imaging, 630×) was “not in normal human prostate epithelial P69 cells” and the “plateau of uptake and retention compared with ARCaP cells” value (P69 cells; control P69 cells) was “much lower plateau”. For the same substance, the “start of uptake and retention” value (P69 cells; control P69 cells) was 12 min, the “subcellular localization of the dye” value (renal cancer cells) was “co-localization with mitochondrial and lysosome organelles” and the “detection of / dye uptake by TRAMP prostate tumors” value ([2]; TRAMP mice, IR-783 i.p. 10 nmol/20 g) was “accumulate in prostate tumors and their metastases; also recorded: could detect tumor; also recorded: active uptake; also recorded: only tumor-positive signal”. The “NIR fluorescence of tumor specimen after formalin fixation” value ([2]; TRAMP tumor, formalin solution for 3 weeks) was “retain heptamethine cyanine NIR fluorescence; also recorded: strong NIR signal”, the “dye signal in tumor tissue” value (ARCaPM tumor; 24 hrs after dye, ARCaPM tumor, in vivo and ex vivo imaging) was “accumulate in tumor tissues; also recorded: strong signals” and the “signal to noise ratios in tumor specimens” value (ARCaPM tumor; in vivo whole body and ex vivo analysis) was “exceeding 25”. For the same substance, the “apparent concentration of dye and its metabolites in tumors versus normal tissues” value (ARCaPM tumor; light emission intensity at 820 nm, P<0.05, 3 determinations) was ~10 fold, the “signals in normal organs” value (ARCaPM tumor; liver, lung, heart, spleen and kidneys) was “very low signals” and the “time at which tumors still retained dye” value (ARCaPM tumor; orthotopic ARCaPM tumor, i.v. 10 nmol/20 g) was ≥ 4 days. The “flow cytometry discrimination of stained cancer cells” value [3] was “totally identified from normal lymphocytes”, the “visualization of cancer cells in blood under NIR imaging” value [3] was “clearly visualized” and the photostability [4] was “relatively photostable”. The water solubility [4] was “water-soluble” and the maximum absorption [5] was 782 nm.
